In patent US20230295200A1 (REGENTS OF THE UNIVERSITY OF MICHIGAN, priority 2022, published 2023) one finds Ki data, which are given here for 14 compounds.

The target of this assay is T1, STAT6 protein (Homo sapiens, UniProt P42226).
T1 sequence (P42226 1-847): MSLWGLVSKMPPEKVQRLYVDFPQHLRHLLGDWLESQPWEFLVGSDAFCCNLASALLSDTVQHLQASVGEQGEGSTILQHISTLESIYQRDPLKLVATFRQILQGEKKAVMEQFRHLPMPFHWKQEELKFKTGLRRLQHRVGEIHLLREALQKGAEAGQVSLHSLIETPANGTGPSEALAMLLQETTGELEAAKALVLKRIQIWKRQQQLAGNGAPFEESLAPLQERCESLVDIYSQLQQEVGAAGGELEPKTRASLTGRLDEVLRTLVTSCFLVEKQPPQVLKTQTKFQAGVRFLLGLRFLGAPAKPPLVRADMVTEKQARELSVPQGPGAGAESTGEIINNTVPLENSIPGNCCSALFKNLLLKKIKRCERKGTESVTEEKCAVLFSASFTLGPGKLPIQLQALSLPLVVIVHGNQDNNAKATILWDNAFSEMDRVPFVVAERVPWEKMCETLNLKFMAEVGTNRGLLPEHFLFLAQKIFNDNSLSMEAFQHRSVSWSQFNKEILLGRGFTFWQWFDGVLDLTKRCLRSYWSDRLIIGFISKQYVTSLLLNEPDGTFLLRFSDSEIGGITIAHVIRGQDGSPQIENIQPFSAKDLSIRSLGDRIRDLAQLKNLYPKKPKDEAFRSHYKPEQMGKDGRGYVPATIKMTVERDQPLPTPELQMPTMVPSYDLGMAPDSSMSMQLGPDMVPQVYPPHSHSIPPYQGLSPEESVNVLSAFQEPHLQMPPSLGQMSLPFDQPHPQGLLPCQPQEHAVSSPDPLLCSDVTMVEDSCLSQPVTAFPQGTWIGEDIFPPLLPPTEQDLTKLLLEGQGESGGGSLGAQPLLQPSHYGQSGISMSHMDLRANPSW
Kind of assay: Fluorescence polarization (FP) binding assay, STAT6. The conditions noted are these: FP competition, 5 nM fluorescein-labeled tracer, 200 nM protein, PBS pH7.4; read-out: Binding STAT6. As to the method:
Evaluation of the activity of the inhibitors may be accomplished by fluorescence polarization (FP) experiments. A representative general protocol is the following:
Fluorescence polarization (FP) experiments are performed in black round-bottom plates using the CLARIOstar microplate reader. To each well, fluorescein-labeled tracer and STAT5 or STAT6 protein are added in assay buffer. […] The inhibition constants are determined as the concentration of the STAT5 or STAT6 at which 50% of the ligand is bound.
Fluorescence polarization (FP) experiments were performed in 96-well, black round-bottom plates (Microfluor 2, Fisher Scientific) using the CLARIOstar microplate reader (BMG Labtech). To each well, 5 nM of fluoresceinlabeled tracer and 200 nM of STAT5 and/or STAT6 protein were added to a final volume of 100 μl in the assay buffer (PBS pH7.4+0.01% BGG+0.01% Tween-20, 2 mM DTT). The plate was mixed on a shaker for 15 m and incubated at room temperature for 1 h to reach equilibrium. […] All experimental data were analyzed using Prism 8.0 software (GraphPad Software), and the inhibition constants were determined by nonlinear curve fitting as the concentration of the STAT5 and/or STAT6 at which 50% of the ligand is bound.
On the technique in general: In fluorescence polarisation assays a small probe gives low polarisation when free and higher when bound to something large.
As to `CCOC(=O)CO[C@H]1C[C@@H](C(=O)N(CCC(=O)O)c2ccc(Br)cc2)N(C(=O)[C@@H](NC(=O)c2cc3cc(C(F)(F)P(=O)(O)O)ccc3s2)C(C)(C)C)C1` [Compound 47, 3-((2S,4S)-N-(4-bromophenyl)-1-((S)-2-(5-(difluoro(phosphono)methyl)benzo [b]thiophene-2-carboxamido)-3,3-dimethylbutanoyl)-4-(2-ethoxy-2-oxoethoxy)pyrrolidine-2-carboxamido)propanoic acid], the Ki lay within 0.1 to 1 µM. `CCOC(=O)CO[C@@H]1C[C@@H](C(=O)N(CCC(=O)O)c2ccc(Br)cc2)N(C(=O)[C@@H](NC(=O)c2cc3cc(C(F)(F)P(=O)(O)O)ccc3s2)C(C)(C)C)C1` [Compound 48, 3-((2S,4R)-N-(4-bromophenyl)-1-((S)-2-(5-(difluoro(phosphono)methyl)benzo[b]thiophene-2-carboxamido)-3,3-dimethylbutanoyl)-4-(2-ethoxy-2-oxoethoxy)pyrrolidine-2-carboxamido)propanoic acid]: the Ki is 0.1 to 1 µM. The result for `CC(C)(C)[C@H](NC(=O)c1cc2cc(C(F)(F)P(=O)(O)O)ccc2s1)C(=O)N1C[C@@H](OCC(=O)O)C[C@H]1C(=O)N(CCC(=O)O)c1ccc(Br)cc1` [Compound 49, 3-((2S,4S)-N-(4-bromophenyl)-4-(carboxymethoxy)-1-((S)-2-(5-(difluoro(phosphono)methyl)benzo[b]thiophene-2-carboxamido)-3,3-dimethylbutanoyl)pyrrolidine-2-carboxamido)propanoic acid] reads 0.1 to 1 µM; that for `CC(C)(C)[C@H](NC(=O)c1cc2cc(C(F)(F)P(=O)(O)O)ccc2s1)C(=O)N1C[C@H](OCC(=O)O)C[C@H]1C(=O)N(CCC(=O)O)c1ccc(Br)cc1` [Compound 50, 3-((2S,4R)-N-(4-bromophenyl)-4-(carboxymethoxy)-1-((S)-2-(5-(difluoro(phosphono)methyl)benzo[b]thiophene-2-carboxamido)-3,3-dimethylbutanoyl)pyrrolidine-2-carboxamido)propanoic acid], 0.1 to 1 µM. The result for `CNC(=O)CCN(C(=O)[C@@H]1C[C@H](OCC(=O)NC)CN1C(=O)[C@@H](NC(=O)c1cc2cc(C(F)(F)P(=O)(O)O)ccc2s1)C(C)(C)C)c1ccc(Br)cc1` [Compound 51, ((2-(((S)-1-((2S,4S)-2-((4-bromophenyl)(3-(methylamino)-3-oxopropyl)carbamoyl)-4-(2-(methylamino)-2-oxoethoxy)pyrrolidin-1-yl)-3,3-dimethyl-1-oxobutan-2-yl)carbamoyl)benzo[b]thiophen-5-yl)difluoromethyl)phosphonic acid] reads 0.1 to 1 µM; that for `CNC(=O)CCN(C(=O)[C@@H]1C[C@@H](OCC(=O)NC)CN1C(=O)[C@@H](NC(=O)c1cc2cc(C(F)(F)P(=O)(O)O)ccc2s1)C(C)(C)C)c1ccc(Br)cc1` [Compound 52, ((2-(((S)-1-((2S,4R)-2-((4-bromophenyl)(3-(methylamino)-3-oxopropyl)carbamoyl)-4-(2-(methylamino)-2-oxoethoxy)pyrrolidin-1-yl)-3,3-dimethyl-1-oxobutan-2-yl)carbamoyl)benzo[b]thiophen-5-yl)difluoromethyl)phosphonic acid], 0.1 to 1 µM; that for `CCOC(=O)CO[C@H]1C[C@@H](C(=O)Nc2ccc(I)cc2)N(C(=O)[C@@H](NC(=O)c2cc3cc(C(F)(F)P(=O)(O)O)ccc3s2)C(C)(C)C)C1` [Compound 53, ((2-(((S)-1-((2S,4S)-4-(2-ethoxy-2-oxoethoxy)-2-((4-iodophenyl)carbamoyl)pyrrolidin-1-yl)-3,3-dimethyl-1-oxobutan-2-yl)carbamoyl)benzo[b]thiophen-5-yl)difluoromethyl)phosphonic acid], 1 to 10 µM.

For the compound `CCOC(=O)CO[C@H]1C[C@@H](C(=O)N(C)c2ccc(Br)cc2)N(C(=O)[C@@H](NC(=O)c2cc3cc(C(F)(F)P(=O)(O)O)ccc3s2)C(C)(C)C)C1` [Compound 54, ((2-(((S)-1-((2S,4S)-2-((4-bromophenyl)(methyl)carbamoyl)-4-(2-ethoxy-2-oxoethoxy)pyrrolidin-1-yl)-3,3-dimethyl-1-oxobutan-2-yl)carbamoyl)benzo[b]thiophen-5-yl)difluoromethyl)phosphonic acid], the Ki lay within 0.1 to 1 µM.

Consider `CCCN(C(=O)[C@@H]1C[C@H](OCC(=O)OCC)CN1C(=O)[C@@H](NC(=O)c1cc2cc(C(F)(F)P(=O)(O)O)ccc2s1)C(C)(C)C)c1ccc(Br)cc1` [Compound 55, ((2-(((S)-1-((2S,4S)-2-((4-bromophenyl)(propyl)carbamoyl)-4-(2-ethoxy-2-oxoethoxy)pyrrolidin-1-yl)-3,3-dimethyl-1-oxobutan-2-yl)carbamoyl)benzo[b]thiophen-5-yl)difluoromethyl)phosphonic acid], for which the Ki was 0.1 to 1 µM. As for `CCOC(=O)CO[C@H]1C[C@@H](C(=O)N(CCC(=O)NC)c2ccc(Br)cc2)N(C(=O)[C@@H](NC(=O)c2cc3cc(C(F)(F)P(=O)(O)O)ccc3s2)C(C)(C)C)C1` [Compound 56, ((2-(((S)-1-((2S,4S)-2-((4-bromophenyl)(3-(methylamino)-3-oxopropyl)carbamoyl)-4-(2-ethoxy-2-oxoethoxy)pyrrolidin-1-yl)-3,3-dimethyl-1-oxobutan-2-yl)carbamoyl)benzo[b]thiophen-5-yl)difluoromethyl)phosphonic acid], the Ki fell in the range of 0.1 to 1 µM. For the compound `CCOC(=O)CO[C@H]1C[C@@H](C(=O)N(CCC(=O)N(C)C)c2ccc(Br)cc2)N(C(=O)[C@@H](NC(=O)c2cc3cc(C(F)(F)P(=O)(O)O)ccc3s2)C(C)(C)C)C1` [Compound 57, ((2-(((S)-1-((2S,4S)-2-((4-bromophenyl)(3-(dimethylamino)-3-oxopropyl)carbamoyl)-4-(2-ethoxy-2-oxoethoxy)pyrrolidin-1-yl)-3,3-dimethyl-1-oxobutan-2-yl)carbamoyl)benzo[b]thiophen-5-yl)difluoromethyl)phosphonic acid], the Ki lay in the range of 0.1 to 1 µM.

`CC(C)(C)[C@H](NC(=O)c1cc2cc(C(F)(F)P(=O)(O)O)ccc2s1)C(=O)N1Cc2ccccc2C[C@H]1C(=O)N1CCOC(c2cccnc2)C1` (stereo partly drawn) [Compound 217, ((2-(((2S)-3,3-dimethyl-1-oxo-1-((3S)-3-(2-(pyridin-3-yl)morpholine-4-carbonyl)-3,4-dihydroisoquinolin-2(1H)-yl)butan-2-yl)carbamoyl)benzo[b]thiophen-5-yl)difluoromethyl)phosphonic acid]: the Ki is less than 0.1 µM.

Turning to `CC(C)(C)[C@H](NC(=O)c1cc2cc(C(F)(F)P(=O)(O)O)ccc2s1)C(=O)N1Cc2ccccc2C[C@H]1C(=O)N1CCOC(c2ccncc2)C1` (stereo partly drawn) [Compound 218, ((2-(((2S)-3,3-dimethyl-1-oxo-1-((3S)-3-(2-(pyridin-4-yl)morpholine-4-carbonyl)-3,4-dihydroisoquinolin-2(1H)-yl)butan-2-yl)carbamoyl)benzo[b]thiophen-5-yl)difluoromethyl)phosphonic acid], the Ki lay within 0.1 to 1 µM. The result for `CC(C)(C)[C@H](NC(=O)c1cc2cc(C(F)(F)P(=O)(O)O)ccc2s1)C(=O)N1Cc2ccccc2C[C@H]1C(=O)N1CCOC(c2nccs2)C1` (stereo partly drawn) [Compound 219, ((2-(((2S)-3,3-dimethyl-1-oxo-1-((3S)-3-(2-(thiazol-2-yl)morpholine-4-carbonyl)-3,4-dihydroisoquinolin-2(1H)-yl)butan-2-yl)carbamoyl)benzo[b]thiophen-5-yl)difluoromethyl)phosphonic acid] reads less than 0.1 µM.
